In PMC8591627 (ACS infectious diseases, 2021):
Where “and” joins values, the source holds several entries; their conditions need not be identical. Equal values may be shown once.

Key:
[1] = test system: JSF-3151–resistant strains; test: MIC versus JSF-3151-resistant strains compared to the parental strain; format: cell-based, Staphylococcus aureus
S. aureus = details: 8x MIC; ref [13], [35]–[36]; cited from earlier work
MRSA COL strain = test: Mouse peritonitis-sepsis model; format: in vivo, Staphylococcus aureus; details: single dose 100 mg/kg subcutaneous
MRSA ATCC 43300 = test: MIC, drug susceptibility assay; format: cell-based, Staphylococcus aureus; details: 18 h; for MRSA ATCC 43300 MIC: 37 °C, visual inspection
MSSA ATCC 25923 = test: MIC, drug susceptibility assay; format: cell-based, Staphylococcus aureus; details: 18 h, 37 °C, visual inspection
Vero cells = format: cell-based; details: 72 h; for CC50: read-out: Vero cell CC50

C[C@H]1c2cccc(O)c2C(=O)C2=C(O)[C@]3(O)C(=O)C(C(N)=O)=C(O)[C@@H](N(C)C)[C@@H]3[C@@H](O)[C@@H]21 [Doxycycline]
MIC versus JSF-3151–resistant strains compared to parental strain [1]: same MIC

CO[C@H]1/C=C/O[C@@]2(C)Oc3c(C)c(O)c4c(O)c(c(/C=N/N5CCN(C)CC5)c(O)c4c3C2=O)NC(=O)/C(C)=C\C=C\[C@H](C)[C@H](O)[C@@H](C)[C@@H](O)[C@@H](C)[C@H](OC(C)=O)[C@@H]1C [Rifampicin]
MIC versus JSF-3151–resistant strains compared to parental strain [1]: same MIC

CN[C@H](CC(C)C)C(=O)N[C@H]1C(=O)N[C@@H](CC(N)=O)C(=O)N[C@H]2C(=O)N[C@H]3C(=O)N[C@H](C(=O)N[C@H](C(=O)O)c4cc(O)cc(O)c4-c4cc3ccc4O)[C@H](O)c3ccc(c(Cl)c3)Oc3cc2cc(c3O[C@@H]2O[C@H](CO)[C@@H](O)[C@H](O)[C@H]2O[C@H]2C[C@](C)(N)[C@H](O)[C@H](C)O2)Oc2ccc(cc2Cl)[C@H]1O [vancomycin]
resistance frequency (S. aureus): 1 x 10^−9 to 1 x 10^−6
mice surviving 3 d post-administration (MRSA COL strain): 12/12
MIC versus JSF-3151–resistant strains compared to parental strain [1]: same MIC

Nc1ccc(C(=O)Nc2cc(Cl)cc3cccnc23)s1 [JSF-3640, 5-amino-N-(6-chloroquinolin-8-yl)thiophene-2-carboxamide]
MIC (MRSA ATCC 43300; Staphylococcus aureus, ATCC43300|MRSA, read-out: MRSA ATCC 43300 MIC): > 50 µg/mL

CC1(C)S[C@@H]2[C@H](NC(=O)[C@H](N)c3ccccc3)C(=O)N2[C@H]1C(=O)O [Ampicillin]
MIC versus JSF-3151–resistant strains compared to parental strain [1]: same MIC

O=C(Nc1cccc(N2CCOC2=O)c1)c1ccc([N+](=O)[O-])o1 [JSF-3153]
MSSA ATCC 25923 MIC (MSSA ATCC 25923; listed as Z364195972 (3153)): 6.2 μg/mL and 20 μM
Vero cell CC50 (Vero cells): 1.6 µg/mL
CC50 (Vero cells): 5 µM
MRSA ATCC 43300 MIC (MRSA ATCC 43300; listed as Z364195972 (3153)): 3.1 μg/mL and 10 μM

CN(C)c1nnc(-c2ccc(NC(=O)c3ccc([N+](=O)[O-])o3)cc2)o1 [JSF-3157]
MSSA ATCC 25923 MIC (MSSA ATCC 25923; listed as Z1542057255 (3157)): 6.2 μg/mL and 18 μM
Vero cell CC50 (Vero cells): 0.78 µg/mL
CC50 (Vero cells): 2 µM
MRSA ATCC 43300 MIC (MRSA ATCC 43300; listed as Z1542057255 (3157)): 6.2 μg/mL and 18 μM

O=C(O)c1cn(C2CC2)c2cc(N3CCNCC3)c(F)cc2c1=O [ciprofloxacin]
resistance frequency (S. aureus): 1 x 10^−9 to 1 x 10^−6

CC[C@H]1OC(=O)[C@H](C)[C@@H](O[C@H]2C[C@@](C)(OC)[C@@H](O)[C@H](C)O2)[C@H](C)[C@@H](O[C@@H]2O[C@H](C)C[C@H](N(C)C)[C@H]2O)[C@](C)(O)C[C@@H](C)C(=O)[C@H](C)[C@@H](O)[C@]1(C)O [erythromycin]
MIC versus JSF-3151–resistant strains compared to parental strain [1]: same MIC

CC(=O)N1CCN(c2cc3c(cc2F)c(=O)c(C(=O)N2CCCc4ccccc42)cn3C2CC2)CC1 [JSF-3145]
MSSA ATCC 25923 MIC (MSSA ATCC 25923; listed as Z27692293 (3145)): 12 μg/mL and 25 μM
Vero cell CC50 (Vero cells): > 50 µg/mL
CC50 (Vero cells): > 100 µM
MRSA ATCC 43300 MIC (MRSA ATCC 43300; listed as Z27692293 (3145)): 12 μg/mL and 25 μM

CC(=O)NC[C@H]1CN(c2ccc(N3CCOCC3)c(F)c2)C(=O)O1 [linezolid]
resistance frequency (S. aureus): 1 x 10^−9 to 1 x 10^−6
